# Source: PubChem BioAssay AID1259332 (Broad Institute, 2017)
# The source made the active and inactive calls. The rule behind the calls is not given here. Starred links: 1 amine or outer side, 2 acyl side, 3 side chain; linkers in the order of their positions; H or OH if unused. Positions of bridges follow the written chain, without caps; N, C: chain ends. Non-standard residues stand in square brackets, D forms with d. Residues, ends and D or L forms follow the SMILES beside them. Chains are numbered I, II in the order given. Actinocin(9to1) = Cc1c2oc3c(C)ccc(C(=O)[*:1])c3nc-2c(C(=O)[*:2])c(N)c1=O; NMeV = CN[CH](C(=O)O)C(C)C; Sar = CNCC(=O)O
# Tested on: B cell line, CD40 signaling inhibition reporter
# Assay: inhibitors of CD40 signaling, dose response, B cell lineage (AID 1259332);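 note: cells stimulated with CD40 ligand tCD40L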
row,SMILES,AC50
1,C[C@H](CO)N1C[C@H](C)[C@@H](CN(C)Cc2ccc(Cl)c(Cl)c2)OCCCC[C@H](C)Oc2ccc(NS(=O)(=O)c3cccs3)cc2C1=O,8.38 µM
2,O=C1CC(=O)OC(c2ccc([N+](=O)[O-])cc2)O1,0.629 µM
3,COc1ccc(C[C@H]2NC[C@H](O)[C@H]2OC(C)=O)cc1,0.0235 µM
4,O=C(C[C@@H]1CC[C@@H]2[C@H](COC[C@H](O)CN2Cc2cc(F)ccc2F)O1)NCc1ccc(Oc2ccccc2)cc1,6.77 µM
5,O=C1NC2C(O)C(O)C(O)C(O)C2c2cc3c(c(O)c21)OCO3 (stereo unspecified),0.155 µM
6,CC(OC(=O)c1cc(Br)ccc1O)C(=O)Nc1ccc(S(=O)(=O)N2CCCC2)cc1 (stereo unspecified),11 µM
7,Cc1ccc(-c2ccccc2[C@H]2[C@@H](C#N)N(c3ncc(-c4ccccc4)s3)[C@@H]2CO)cc1,> 20 µM (inactive)
8,COc1ccc(-c2cc(-c3ccccc3)c(C#N)c(S(C)=O)n2)cc1 (stereo unspecified),2.55 µM
9,c1cc(-c2cnn3cc(-c4ccc(OCCN5CCCCC5)cc4)cnc23)ccn1,2.7 µM
10,CC(=O)OC1CCC2(C)C(CCC3C4CC=C(C(C)=O)C4(C)OC(=O)CC32)C1 (stereo unspecified),2.3 µM
11,N#C[C@@H]1[C@H](c2ccc(C#Cc3ccccc3F)cc2)[C@@H](CO)N1C(=O)c1cccnc1,4.37 µM
12,COc1ccc2cc(-c3cc(C(=O)O)c4ccccc4n3)ccc2c1,6.11 µM
13,NCCOc1ccc(C23CC4CC(CC(C4)C2)C3)cc1,5.74 µM
14,COc1ccc(S(=O)(=O)Nc2ccc3c(c2)C(=O)N([C@@H](C)CO)C[C@H](C)[C@@H](CN(C)Cc2ccc(C(F)(F)F)cc2)OCCCC[C@@H](C)O3)cc1,7.3 µM
15,Cc1cc(C)nc(Sc2ncnc(N)c2[N+](=O)[O-])n1,2.63 µM
16,Cc1[nH]c2ccccc2c1C(c1ccccn1)N1CCC(C(N)=O)CC1 (stereo unspecified),9.34 µM
17,CC(C)(C)CC(C)(C)c1ccc(O)c(Cc2ccc(Cl)cc2Cl)c1,7.11 µM
18,CC(C)[C@H](CO)Nc1nc(Nc2cccc(Cl)c2)c2ncn(C(C)C)c2n1,4.67 µM
19,CC(C)OC(=O)c1cn(Cc2c(F)cccc2F)c2sc(-c3ccc(NC(=O)C(C)C)cc3)c(CN(C)Cc3ccccc3)c2c1=O,> 20 µM (inactive)
20,CS(=O)(=O)c1ccc(C(=O)OCC(=O)NC(=O)C2CCCCC2)cc1[N+](=O)[O-],> 20 µM (inactive)
21,c1ccc(-c2nnc(-c3ccccn3)nn2)nc1,10.5 µM
22,COc1ccccc1NC(c1cccnc1)c1ccc2cccnc2c1O (stereo unspecified),8.25 µM
23,Cc1c2oc3c(C)ccc(C(=O)OC(C)C4NC(=O)C(C(C)C)N(C)C(=O)CN(C)C(=O)C5CCCN5C(=O)C(C(C)C)NC4=O)c3nc-2c(C(=O)OC(C)C2NC(=O)C(C(C)C)N(C)C(=O)CN(C)C(=O)C3CCCN3C(=O)C(C(C)C)NC2=O)c(N)c1=O (stereo unspecified) (I: cyclo([Sar][NMeV]TVP) / II: cyclo([Sar][NMeV]TVP); linker I:3-II:3 via Actinocin(9to1); configuration not given here),0.0309 µM

row,SMILES,AC50
1,COC(=O)c1ccc2nc(NC(=O)C(C)(C)C)sc2c1,1.9 µM
2,Cn1cnc(S(=O)(=O)N2C[C@@H]3N[C@H](C2)C3c2ccc(-c3ccccc3F)cc2)c1 (stereo partly specified),11 µM
3,Cc1cc(C(=O)COC(=O)CNC(=O)c2ccccc2)c(C)n1CC1CCCO1 (stereo unspecified),2.32 µM
4,COc1cccc(C#Cc2ccc([C@H]3[C@@H](C#N)N(C(=O)c4ccccn4)[C@@H]3CO)cc2)c1,5.81 µM
5,Cc1nc(C)c(C(=O)Nc2ncc([N+](=O)[O-])s2)o1,9.08 µM
6,N#Cc1cccc(-c2ccc([C@@H]3[C@@H]4CN(S(=O)(=O)c5ccc(-c6ccccc6)cc5)C[C@H]3N4)cc2)c1,> 20 µM (inactive)
7,CC1=C(SCCO)C(=O)c2ccccc2C1=O,2.6 µM
8,CC(C)(C)[C@H](N)C(=O)N[C@H]1CCC2C3CC=C4C[C@@H](O)CC[C@]4(C)C3CC[C@@]21C (stereo partly specified),5.04 µM
9,N#C[C@@H]1[C@H](c2ccc(C#CC3CCCCC3)cc2)[C@@H](CO)N1C(=O)Nc1ccc(F)cc1,10.4 µM
10,Cc1ccsc1C(=O)OCC(=O)c1cc(C)n(CC2CCCO2)c1C (stereo unspecified),0.124 µM
11,CC=Cc1cc2c(c(=O)o1)C(=O)C(O)C(C)O2 (stereo unspecified),> 20 µM (inactive)
12,N#C[C@H]1[C@H](c2ccc(C#Cc3ccc(F)cc3)cc2)[C@@H](CO)N1C(=O)C1CCC1,7.7 µM
13,CC1CCCC=CC2CC(OC(=O)CN(C)C)CC2C(O)C=CC(=O)O1 (stereo unspecified),1.77 µM
14,CCC1=C(CC2NCCc3ccccc32)CC2c3cc(OC)c(OC)cc3CCN2C1 (stereo unspecified),1.75 µM
15,O=C(NC(=S)/C(=C1\CCCCCN1)[N+](=O)[O-])c1ccccc1,3.07 µM
16,CC1CC(C)CC(C)C(O)C(C#N)=CC=CCC(C2CCCC2C(=O)O)OC(=O)CC(O)C(C)C1 (stereo unspecified),< 0.0005 µM
17,COc1cccc(NC(=O)N2CC(=O)N3[C@H](CO)[C@@H](c4ccc(C#CCC5CCCC5)cc4)[C@H]3C2)c1,> 7 µM (inactive)
18,C[C@@H]1C[C@@H]([C@H](O)CC2CC(=O)NC(=O)C2)C(=O)[C@@H](C)C1,0.393 µM
19,OC(c1cc(-c2cccc(Cl)c2)nc2ccccc12)C1CCCCN1 (stereo unspecified),4.14 µM
20,COc1ccc(S(=O)(=O)Nc2ccc3c(c2)C(=O)N([C@@H](C)CO)C[C@@H](C)[C@@H](CN(C)Cc2ccc(C(F)(F)F)cc2)OCCCC[C@H](C)O3)cc1,> 7 µM (inactive)
21,N#C[C@@H]1[C@@H](c2ccccc2-c2ccc(F)cc2)[C@H](CO)N1C(=O)NC1CCCCC1,> 22 µM (inactive)
22,COc1ccc(/C=C2/CCC(CN3CCOCC3)C2=O)cc1 (stereo unspecified),3.67 µM
23,C=C1CC(Cn2cc(Br)c(=O)[nH]c2=O)(c2ccc(-c3ccccc3)cc2)OC1=O (stereo unspecified),1.07 µM
